From the NIST ThermoML archive (doi:10.1016/j.jct.2009.11.020)
Numbers after ± are expanded uncertainties.

How the values were obtained:
[1] = refractive index (Na D-line) (dimensionless); settings: 293.15 K; 101.33 kPa; Liquid; Standard Abbe refractometry
[2] = 293.15 K; 101.33 kPa; Liquid; Vibrating tube method

SMILES | refractive index [1] | mass density [2]
OCC(O)CO [glycerol] | 1.474 ± 0.001 | 1261.3 ± 0.5 kg/m3
CO [methanol] | 1.328 ± 0.001 | 791.03 ± 0.23 kg/m3
O [water] | 1.333 ± 0.001 | –
